# In patent US12123010B2, “Plants having increased tolerance to herbicides” (BASF SE, priority 2017, dated 2024):
# Several values for one entry are separate records, joined by “and”; a condition that tells them apart may be missing. Equal values may be shown once. Read-outs that look alike come from different tables or passages of the source.
# Experiments:
# [1] = biological target: Variant PPO Enzyme R128A, F420M (Amaranthus PPO2) (Amaranthus tuberculatus, UniProt Q0NZW9, F420M/R128A); assay type: biochemical
# Variant PPO Enzyme R128A, F420M (Amaranthus PPO2), sequence (Q0NZW9 1-534 F420M/R128A): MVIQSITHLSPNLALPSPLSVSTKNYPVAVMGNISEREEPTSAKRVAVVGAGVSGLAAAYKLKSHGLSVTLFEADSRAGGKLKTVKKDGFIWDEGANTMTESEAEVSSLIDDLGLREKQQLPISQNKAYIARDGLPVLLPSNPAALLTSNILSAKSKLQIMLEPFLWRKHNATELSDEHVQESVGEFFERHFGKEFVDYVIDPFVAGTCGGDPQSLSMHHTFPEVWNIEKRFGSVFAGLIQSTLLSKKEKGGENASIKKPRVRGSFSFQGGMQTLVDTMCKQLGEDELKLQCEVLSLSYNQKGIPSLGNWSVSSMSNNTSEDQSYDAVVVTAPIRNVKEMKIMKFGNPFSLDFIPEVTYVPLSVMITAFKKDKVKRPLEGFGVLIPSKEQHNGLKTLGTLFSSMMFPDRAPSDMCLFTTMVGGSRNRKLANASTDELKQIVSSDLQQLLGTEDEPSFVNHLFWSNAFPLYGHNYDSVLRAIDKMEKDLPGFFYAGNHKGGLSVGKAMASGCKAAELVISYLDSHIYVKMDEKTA
# [2] = biological target: Variant PPO Enzyme L397E, F420M (Amaranthus PPO2) (Amaranthus tuberculatus, UniProt Q0NZW9, F420M/L397E); assay type: biochemical
# Variant PPO Enzyme L397E, F420M (Amaranthus PPO2), sequence (Q0NZW9 1-534 F420M/L397E): as the sequence (Q0NZW9 1-534 F420M/R128A) above, with A128R, L397E counted along it
# [3] = biological target: Variant PPO Enzyme R128A, F420V (Amaranthus PPO2) (Amaranthus tuberculatus, UniProt Q0NZW9, F420V/R128A); test: biochemical; assay type: biochemical
# Variant PPO Enzyme R128A, F420V (Amaranthus PPO2), sequence (Q0NZW9 1-534 F420V/R128A): as the sequence (Q0NZW9 1-534 F420M/R128A) above, with M420V counted along it
# [4] = biological target: Variant PPO Enzyme L397Q, F420V (Amaranthus PPO2) (Amaranthus tuberculatus, UniProt Q0NZW9, F420V/L397Q); assay type: biochemical
# Variant PPO Enzyme L397Q, F420V (Amaranthus PPO2), sequence (Q0NZW9 1-534 F420V/L397Q): as the sequence (Q0NZW9 1-534 F420M/R128A) above, with A128R, L397Q, M420V counted along it
# [5] = biological target: Variant PPO Enzyme L397Q, F420M (Amaranthus PPO2) (Amaranthus tuberculatus, UniProt Q0NZW9, F420M/L397Q); assay type: biochemical
# Variant PPO Enzyme L397Q, F420M (Amaranthus PPO2), sequence (Q0NZW9 1-534 F420M/L397Q): as the sequence (Q0NZW9 1-534 F420M/R128A) above, with A128R, L397Q counted along it
# [6] = biological target: Variant PPO Enzyme L397Q (Amaranthus PPO2) (Amaranthus tuberculatus, UniProt Q0NZW9, L397Q); assay type: biochemical
# Variant PPO Enzyme L397Q (Amaranthus PPO2), sequence (Q0NZW9 1-534 L397Q): as the sequence (Q0NZW9 1-534 F420M/R128A) above, with A128R, L397Q, M420F counted along it
# [7] = biological target: Variant PPO Enzyme F420V (Amaranthus PPO2) (Amaranthus tuberculatus, UniProt Q0NZW9, F420V); assay type: biochemical
# Variant PPO Enzyme F420V (Amaranthus PPO2), sequence (Q0NZW9 1-534 F420V): as the sequence (Q0NZW9 1-534 F420M/R128A) above, with A128R, M420V counted along it
# [8] = biological target: Variant PPO Enzyme F420M (Amaranthus PPO2) (Amaranthus tuberculatus, UniProt Q0NZW9, F420M); test: biochemical; assay type: biochemical
# Variant PPO Enzyme F420M (Amaranthus PPO2), sequence (Q0NZW9 1-534 F420M): as the sequence (Q0NZW9 1-534 F420M/R128A) above, with A128R counted along it
# [9] = tested on: Transgenic T2 Arabidopsis plants harboring PPO inhibitor tolerance trait; test: Lab based germination assay in 48-well plates (Table i); assay type: in vivo, Arabidopsis thaliana
# [10] = read-out: Variant PPO Enzyme IC50
structure (smiles),measurement,setting,value
"Cn1c(C(F)(F)F)cc(=O)n(-c2nc(Oc3cccnc3OCC(=O)OCC3CC3)c(Cl)cc2F)c1=O [Uracilpyridine 15, cyclopropylmethyl 2-[[3-[[3-chloro-5-fluoro-6-[3-methyl-2,6-dioxo-4-(trifluoromethyl)pyrimidin-1-yl]-2-pyridyl]oxy]-2-pyridyl]oxy]acetate]",IC50,[1],42.9 nM
"CCOC(=O)COc1ccccc1Oc1nc(-n2c(=O)cc(C(F)(F)F)n(C)c2=O)c(F)cc1Cl [Uracilpyridine 4, ethyl 2-[2-[[3-chloro-5-fluoro-6-[3-methyl-2,6-dioxo-4-(trifluoromethyl)pyrimidin-1-yl]-2-pyridyl]oxy]phenoxy]acetate]",IC50,[1],69.4 nM
"CC(C)COC(=O)COc1ncccc1Oc1nc(-n2c(=O)cc(C(F)(F)F)n(C)c2=O)c(F)cc1Cl [Uracilpyridine 17, isobutyl 2-[[3-[[3-chloro-5-fluoro-6-[3-methyl-2,6-dioxo-4-(trifluoromethyl)pyrimidin-1-yl]-2-pyridyl]oxy]-2-pyridyl]oxy]acetate]",IC50,[1],46.1 nM
"Cn1c(C(F)(F)F)cc(=O)n(-c2nc(Oc3cccnc3OCC(=O)OCC(F)F)c(Cl)cc2F)c1=O [Uracilpyridine 16, 2,2-difluoroethyl 2-[[3-[[3-chloro-5-fluoro-6-[3-methyl-2,6-dioxo-4-(trifluoromethyl)pyrimidin-1-yl]-2-pyridyl]oxy]-2-pyridyl]oxy]acetate]",IC50,[1],89 nM
"CCOC(=O)COC(=O)COc1ncccc1Oc1nc(-n2c(=O)cc(C(F)(F)F)n(C)c2=O)c(F)cc1Cl [Uracilpyridine 18, (2-ethoxy-2-oxo-ethyl) 2-[[3-[[3-chloro-5-fluoro-6-[3-methyl-2,6-dioxo-4-(trifluoromethyl)pyrimidin-1-yl]-2-pyridyl]oxy]-2-pyridyl]oxy]acetate]",IC50,[1],116 nM
"Cn1c(C(F)(F)F)cc(=O)n(-c2nc(Oc3ccccc3OCC(=O)NS(C)(=O)=O)c(Cl)cc2F)c1=O [Uracilpyridine 10, 2-[2-[[3-chloro-5-fluoro-6-[3-methyl-2,6-dioxo-4-(trifluoromethyl)pyrimidin-1-yl]-2-pyridyl]oxy]phenoxy]-N-methylsulfonyl-acetamide]",IC50,[1],1670 nM
same,IC50,[2],6510 nM
"C=CCOC(=O)COc1ncccc1Oc1nc(-n2c(=O)cc(C(F)(F)F)n(C)c2=O)c(F)cc1Cl [Uracilpyridine 13, allyl 2-[[3-[[3-chloro-5-fluoro-6-[3-methyl-2,6-dioxo-4-(trifluoromethyl)pyrimidin-1-yl]-2-pyridyl]oxy]-2-pyridyl]oxy]acetate]",IC50,[1],91.8 nM
"C#CCOC(=O)COc1ncccc1Oc1nc(-n2c(=O)cc(C(F)(F)F)n(C)c2=O)c(F)cc1Cl [Uracilpyridine 14, prop-2-ynyl 2-[[3-[[3-chloro-5-fluoro-6-[3-methyl-2,6-dioxo-4-(trifluoromethyl)pyrimidin-1-yl]-2-pyridyl]oxy]-2-pyridyl]oxy]acetate]",IC50,[1],158 nM
"CCOC(=O)COc1ncccc1Oc1cc(-n2c(=O)cc(C(F)(F)F)n(C)c2=O)c(F)cc1Cl [Uracilpyridine 1, ethyl 2-[[3-[2-chloro-4-fluoro-5-[3-methyl-2,6-dioxo-4-(trifluoromethyl)pyrimiclin-1-yl]phenoxy]-2-pyridyl]oxy]acetate]",IC50,[3]; [10],162 nM and 280 nM
same,IC50,[1],61.6 nM
same,IC50,[4],2260 nM
same,IC50,[5],429 nM
same,IC50,[6],2.38 nM
same,IC50,[7],66.4 nM
same,IC50,[8]; [10],38.1 nM and 46.9 nM
same,Tolerance Factor,"[9]; construct AMATU_PPO2_F420M (Amaranthus tuberculatus), in comparison to wild type plants",110
same,Tolerance Factor,"[9]; construct AMATU_PPO2_L397D (Amaranthus tuberculatus), in comparison to wild type plants",50
same,Tolerance Factor,"[9]; construct AMATU_PPO2_L397D_F420V (Amaranthus tuberculatus), in comparison to wild type plants",41
same,Tolerance Factor,"[9]; construct AMATU_PPO2_R128A_F420M (Amaranthus tuberculatus), in comparison to wild type plants",50
same,Tolerance Factor,"[9]; construct AMATU_PPO2_R128A_F420V (Amaranthus tuberculatus), in comparison to wild type plants",75
same,Tolerance Factor,"[9]; construct AMATU_PPO2_WT (Amaranthus tuberculatus), growth inhibition in comparison to wild type plants",6
"COCCOC(=O)COc1ncccc1Oc1nc(-n2c(=O)cc(C(F)(F)F)n(C)c2=O)c(F)cc1Cl [Uracilpyridine 19, 2-methoxyethyl 2-[[3-[[3-chloro-5-fluoro-6-[3-methyl-2,6-dioxo-4-(trifluoromethyl)pyrimidin-1-yl]-2-pyridyl]oxy]-2-pyridyl]oxy]acetate]",IC50,[1],125 nM
"CCOC(=O)COc1ccccc1Oc1nc(-n2c(=O)c(C)c(C(F)(F)F)n(C)c2=O)c(F)cc1Cl [Uracilpyridine 12, ethyl 2-[2-[[3-chloro-6-[3,5-dimethyl-2,6-dioxo-4-(trifluoromethyl)pyrimidin-1-yl]-5-fluoro-2-pyridyl]oxy]phenoxy]acetate]",IC50,[1],114 nM
"CCOC(=O)COc1ncccc1Oc1nc(-n2c(=O)cc(C(F)(F)F)n(C)c2=O)c(F)cc1Cl [Uracilpyridine 2, ethyl 2-[[3-[[3-chloro-5-fluoro-6-[3-methyl-2,6-dioxo-4-(trifluoromethyl)pyrimidin-1-yl]-2-pyridyl]oxy]-2-pyridyl]oxy]acetate]",IC50,[3],149 nM
same,IC50,[1],97.4 nM
same,IC50,[8],45.7 nM
